Source: patent publication US7250157B2, “Dermatological compositions and methods” (Applied Genetics Incorporated Dermatics, priority 1996, dated 2007)
Where a name gives a salt, the structure may show the parent alone.

Tested on: tyrosinase activity in S91 mouse melanoma cells
Assay: Induction of tyrosinase activity in S91 cells
Conditions: for relative melanogenic potency in S91 cells (in words): Table 19 data

CCSC(=N)N [S-EITU, S-ethylisothiourea, reference compound]
tyrosinase activity in S91 cells (in words) (1000 nM S-EITU): complete ablation of tyrosinase activity

methyl-5-norbornene-2,3-dimethanol
Fold Induction of Tyrosinase Relative to Controls (0.5 mM (Table 16)): 6.0X | Fold Induction of Tyrosinase Relative to Controls (1 mM (Table 16)): 8.1X | Fold Induction of Tyrosinase Relative to Controls (2.5 mM (Table 16)): 0.8X

CC1(C)C2CC=C(CO)[C@@H]1C2 [(1R)-(−)-myrtenol, (1R)-2-pinen-10-ol]
Fold Induction of Tyrosinase Relative to Controls (0.5 mM (Table 19)): 13.6X | Fold Induction of Tyrosinase Relative to Controls (1 mM (Table 19)): 17.6X | Fold Induction of Tyrosinase Relative to Controls (2.5 mM (Table 19)): 2.2X

CC1CCC2CC1C2(C)C [(1R)-(−)-α-pinane]
Fold Induction of Tyrosinase Relative to Controls (0.5 mM (Table 19)): 1.2X | Fold Induction of Tyrosinase Relative to Controls (1 mM (Table 19)): 0.8X | Fold Induction of Tyrosinase Relative to Controls (2.5 mM (Table 19)): 0.9X

O=COC1CC2CCC1C2 (racemic) [± exo-2-norbornyl formate]
Fold Induction of Tyrosinase Relative to Controls (1 mM (Table 15)): 2.7X | Fold Induction of Tyrosinase Relative to Controls (5 mM (Table 15)): 2.3X

CC1(C)C2CCC(CO)[C@]1(O)C2 (stereo in doubt) [(1R)-(−)-trans-pinane-1,10-diol]
Fold Induction of Tyrosinase Relative to Controls (1 mM (Table 19)): 14.3X | Fold Induction of Tyrosinase Relative to Controls (2.5 mM (Table 19)): 96.0X | Fold Induction of Tyrosinase Relative to Controls (5 mM (Table 19)): 36.8X | relative melanogenic potency in S91 cells (in words): almost-identical to that of (1R, 2R, 3S, 5R)-(−)-pinanediol

CC1(C)C2CCC1(C)C(O)C2O (stereo not drawn) [2,3-trans-bornanediol]
Fold Induction of Tyrosinase Relative to Controls (0.5 mM (Table 19)): 4.7X | Fold Induction of Tyrosinase Relative to Controls (1 mM (Table 19)): 12.8X | Fold Induction of Tyrosinase Relative to Controls (2.5 mM (Table 19)): 22.1X

CC1=C[C@H](O)[C@H]2C[C@@H]1C2(C)C (relative stereo) [(S)-cis-verbenol]
Fold Induction of Tyrosinase Relative to Controls (0.5 mM (Table 19)): 1.0X | Fold Induction of Tyrosinase Relative to Controls (1 mM (Table 19)): 3.0X | Fold Induction of Tyrosinase Relative to Controls (2.5 mM (Table 19)): 15.5X

CC1(C)C2CCC1(C)C(O)C2O (stereo not drawn) [2,3-cis/exo-bornanediol]
Fold Induction of Tyrosinase Relative to Controls (0.5 mM (Table 19)): 10.2X | Fold Induction of Tyrosinase Relative to Controls (1 mM (Table 19)): 28.5X | Fold Induction of Tyrosinase Relative to Controls (2.5 mM (Table 19)): 101X | relative melanogenic potency in S91 cells (in words): more than twice as potent as 2,3-trans-bornanediol

OC1CC2CCC1C2O (stereo not drawn) [2,7-norbornanediol]
Fold Induction of Tyrosinase Relative to Controls (1 mM (Table 16)): 0.8X | Fold Induction of Tyrosinase Relative to Controls (2.5 mM (Table 16)): 1.6X | Fold Induction of Tyrosinase Relative to Controls (5 mM (Table 16)): 3.5X

Cl.Cl.O=S(=O)(NCCNCC=Cc1ccc(Br)cc1)c1cccc2cnccc12 [H-89, reference compound]
effect on induction of tyrosinase by 5-NBene-2,2-DM in S91 cells (in words): augmentation of basal and 5-NBene-2,2-DM-induced tyrosinase levels | Tyrosinase Relative to Control (1 uM H-89): 1.3X | Tyrosinase dpm/hr/ug Protein (1 uM H-89): 507 dpm/hr/ug Protein | Tyrosinase Relative to Control (10 uM H-89): 3.1X | Tyrosinase dpm/hr/ug Protein (10 uM H-89): 1236 dpm/hr/ug Protein

mono- & di-acetate 2,5 & 6,7-norbornanetriol
Fold Induction of Tyrosinase Relative to Controls (1 mM (Table 15)): 1.5X | Fold Induction of Tyrosinase Relative to Controls (2 mM (Table 15)): 3.0X

CC1(C)N([O])C(c2ccccc2)=[N+]([O-])C1(C)C [PTIO, 2-phenyl-4,4,5,5-tetramethylimidazoline-1-oxyl-3-oxide, reference compound]
effect on induction of melanogenesis by 5-NBene-2,2-DM in S91 cells (in words): reduced induction of melanogenesis by 5-NBene-2,2-DM

O=C1C(Nc2ccccc2)=CC(=O)c2ncccc21 [LY83583, 6-anilino-5,8-quinolinequinone, reference compound]
effect on induction of melanogenesis by 5-NBene-2,2-DM in S91 cells (in words): reduced induction of melanogenesis by 5-NBene-2,2-DM

OCC1(O)CC2CCC1C2 (stereo not drawn) [2-hydroxy-2-norbornanemethanol]
Fold Induction of Tyrosinase Relative to Controls (1 mM (Table 16)): 9.2X | Fold Induction of Tyrosinase Relative to Controls (2.5 mM (Table 16)): 15.5X | Fold Induction of Tyrosinase Relative to Controls (5 mM (Table 16)): 45.0X

CC(C)[C@@H]1CC[C@@H](C)C[C@H]1O [(1R,2S,5R)-(−)-menthol, (1R,2S,5R)-2-isopropyl-5-methylcyclohexanol]
Fold Induction of Tyrosinase Relative to Controls (0.5 mM (Table 19)): 2.0X | Fold Induction of Tyrosinase Relative to Controls (1 mM (Table 19)): 1.3X

OCC1(CO)CC2CCC1C2 (stereo not drawn) [NBane-2,2-DM, norbornane-2,2-dimethanol]
induction of tyrosinase in S91 cells compared with 5-NBene-2,2-DM (FIG. 2): equivalent potency

OC1CC2CCC1C2 (stereo not drawn) [α-NBane-ol, α-Norborneol]
induction of tyrosinase in S91 cells compared with 5-NBene-2,2-DM (FIG. 2): Lesser induction

C1CC2CCC1C2 [NBane, Norbornane]
induction of tyrosinase in S91 cells compared with 5-NBene-2,2-DM (FIG. 2): Lesser induction | induction of tyrosinase (1 or 5 mM (FIG. 2)): 2 fold | induction of tyrosinase relative to untreated or ethanol (ETOH) treated control S91 cells (FIG. 2): 2 fold

Bisindolylmaleimide [GF109203X, reference compound]
effect on induction of tyrosinase by 5-NBene-2,2-DM in S91 cells (in words): augmentation of basal and 5-NBene-2,2-DM-induced tyrosinase levels | Tyrosinase Relative to Control (0.1 uM GF109203X): 2.6 | Tyrosinase dpm/hr/ug Protein (0.1 uM GF109203X): 1025 dpm/hr/ug Protein | Tyrosinase Relative to Control (1 uM GF109203X): 6.1X | Tyrosinase dpm/hr/ug Protein (1 uM GF109203X): 2407 dpm/hr/ug Protein

CC1CCC(C(C)(C)O)C(O)C1 (stereo not drawn) [cis-p-menthane-3,8-diol]
Fold Induction of Tyrosinase Relative to Controls (0.5 mM (Table 19)): 1.6X | Fold Induction of Tyrosinase Relative to Controls (1 mM (Table 19)): 3.0X | Fold Induction of Tyrosinase Relative to Controls (2.5 mM (Table 19)): 17.1X | Fold Induction of Tyrosinase Relative to Controls (5 mM (Table 19)): 11.6X

Catalase [reference compound]
effect on induction of tyrosinase by 5-NBene-2,2-DM in S91 cells (in words): did not inhibit the action of 5-NBene-2,2-DM | Tyrosinase Relative to Control (500 Units Catalase/ml): 1.9X | Tyrosinase dpm/hr/ug Protein (500 Units Catalase/ml): 745 dpm/hr/ug Protein | Tyrosinase Relative to Control (1000 Units Catalase/ml): 1.7X | Tyrosinase dpm/hr/ug Protein (1000 Units Catalase/ml): 691 dpm/hr/ug Protein

O=C(O)[C@@H]1[C@H](C(=O)O)[C@@H]2C=C[C@H]1C2 [5-norbornene-2,3-cis/endodicarboxylic acid]
Fold Induction of Tyrosinase Relative to Controls (1 mM (Table 15)): 2.2X | Fold Induction of Tyrosinase Relative to Controls (5 mM (Table 15)): 1.0X

OCC1CCC(CO)CC1 (stereo not drawn) [1,4-cyclohexanedimethanol]
Fold Induction of Tyrosinase Relative to Controls (1 mM (Table 16)): 1.2X | Fold Induction of Tyrosinase Relative to Controls (2.5 mM (Table 16)): 1.7X | Fold Induction of Tyrosinase Relative to Controls (5 mM (Table 16)): 3.2X

CC1(C)[C@@H]2C[C@@H](O)[C@@](C)(O)[C@H]1C2 [(1S,2S,3R,5S)-(+)-pinanediol]
Fold Induction of Tyrosinase Relative to Controls (1 mM (Table 19)): 9.9X | Fold Induction of Tyrosinase Relative to Controls (2.5 mM (Table 19)): 68.4X | Fold Induction of Tyrosinase Relative to Controls (5 mM (Table 19)): 39.9X

CC1(C)C2CCC1(C)C(O)C2 (stereo not drawn) [borneol]
Fold Induction of Tyrosinase Relative to Controls (0.5 mM (Table 19)): 3.7X | Fold Induction of Tyrosinase Relative to Controls (1 mM (Table 19)): 2.1X | Fold Induction of Tyrosinase Relative to Controls (2.5 mM (Table 19)): 3.7X | relative melanogenic potency in S91 cells (in words): much less activity

CC1C(O)CC2CC1C2(C)C (single isomer, unassigned; (-)) [(−)-isopinocampheol]
Fold Induction of Tyrosinase Relative to Controls (0.5 mM (Table 19)): 2.3X | Fold Induction of Tyrosinase Relative to Controls (1 mM (Table 19)): 3.3X | detachment of cells from culture dishes (no tyrosinase analysis) (2.5 mM (Table 19)): NA^2 | toxicity to S91 cells (in words) (higher concentrations tested (Table 19)): resulted in detachment of cells from culture dishes

CC1CCC2CC1C2(C)C [(1S)-(−)-α-pinane]
Fold Induction of Tyrosinase Relative to Controls (0.5 mM (Table 19)): 1.4X | Fold Induction of Tyrosinase Relative to Controls (1 mM (Table 19)): 1.1X | Fold Induction of Tyrosinase Relative to Controls (2.5 mM (Table 19)): 1.4X | Fold Induction of Tyrosinase Relative to Controls (5 mM (Table 19)): 1.2X

OC[C@@H]1CCCC[C@@H]1CO [1,2-cis-cyclohexanedimethanol]
Fold Induction of Tyrosinase Relative to Controls (1 mM (Table 16)): 0.9X | Fold Induction of Tyrosinase Relative to Controls (2.5 mM (Table 16)): 6.1X | detachment of cells from culture dishes (no tyrosinase analysis) (5 mM (Table 16)): NA^

OCC1(CO)CC=CCC1 [3-cyclohexane-1,1-dimethanol]
Fold Induction of Tyrosinase Relative to Controls (1 mM (Table 16)): 1.4X | Fold Induction of Tyrosinase Relative to Controls (2.5 mM (Table 16)): 2.3X | Fold Induction of Tyrosinase Relative to Controls (5 mM (Table 16)): 7.0X

1-(exo & endo-2-norbornyl-)-propan-1,2-diol
Fold Induction of Tyrosinase Relative to Controls (0.5 mM (Table 16)): 2.2X | Fold Induction of Tyrosinase Relative to Controls (1 mM (Table 16)): 4.2X | Fold Induction of Tyrosinase Relative to Controls (2.5 mM (Table 16)): 48.5X | Fold Induction of Tyrosinase Relative to Controls (5 mM (Table 16)): 2.0X

CC1(C)[C@@H]2CC(=O)[C@@](C)(O)[C@H]1C2 [(1S,2S,5S,)-2-hydroxy-3-pinanone]
Fold Induction of Tyrosinase Relative to Controls (1 mM (Table 19)): 4.1X | Fold Induction of Tyrosinase Relative to Controls (2.5 mM (Table 19)): 37.1X | Fold Induction of Tyrosinase Relative to Controls (5 mM (Table 19)): 94.9X | relative melanogenic potency in S91 cells (in words): about half as potent as (1R, 2R, 3S, 5R)-(−)-pinanediol

OC1C2CCC(C2)C1O (stereo not drawn) [2,3-c/e-NBaneD, 2,3-cis/exo-Norbornanediol]
induction of tyrosinase in S91 cells compared with 5-NBene-2,2-DM (FIG. 2): Lesser induction

C[C@@H]1CC[C@@H](C(C)(C)O)[C@H](O)C1 (relative stereo) [trans-p-menthane-3,8-diol]
Fold Induction of Tyrosinase Relative to Controls (0.5 mM (Table 19)): 5.2X | Fold Induction of Tyrosinase Relative to Controls (1 mM (Table 19)): 13.2X | Fold Induction of Tyrosinase Relative to Controls (2.5 mM (Table 19)): 21.0X | Fold Induction of Tyrosinase Relative to Controls (5 mM (Table 19)): 7.3X

2,5 & 6,7-norbornanetriol
Fold Induction of Tyrosinase Relative to Controls (1 mM (Table 15)): 5.1X | Fold Induction of Tyrosinase Relative to Controls (2 mM (Table 15)): 5.1X

COC(=O)[C@@]1(OC)C[C@H]2O[C@]1(C)n1c3ccccc3c3c4c(c5c6ccccc6n2c5c31)C(=O)N(C)C4 [KT5823, reference compound]
effect on induction of melanogenesis by 5-NBene-2,2-DM in S91 cells (in words): reduced induction of melanogenesis by 5-NBene-2,2-DM

CC1=CC[C@@H](C(C)(C)O)CC1 [(−)-a-terpineol, (S)-p-menth-1-en-8-ol]
Fold Induction of Tyrosinase Relative to Controls (0.5 mM (Table 19)): 6.2X | Fold Induction of Tyrosinase Relative to Controls (1 mM (Table 19)): 7.1X | Fold Induction of Tyrosinase Relative to Controls (2.5 mM (Table 19)): 4.7X

C=C(C)C1CC=C(C)CC1 (single isomer, unassigned; (+)) [R-(+)-limonene, (+)-p-mentha-1,8-diene]
relative melanogenic potency in S91 cells (in words): little or no melanogenic activity

O=C(O)CC1CC2CCC1C2 (stereo not drawn) [2-norbornaneacetic acid]
Fold Induction of Tyrosinase Relative to Controls (1 mM (Table 15)): 4.6X | Fold Induction of Tyrosinase Relative to Controls (5 mM (Table 15)): 12.9X

OCC(CO)(CO)CO [pentaerylthritol]
Fold Induction of Tyrosinase Relative to Controls (1 mM (Table 16)): 1.2X | Fold Induction of Tyrosinase Relative to Controls (2.5 mM (Table 16)): 1.9X | Fold Induction of Tyrosinase Relative to Controls (5 mM (Table 16)): 1.5X

2,3-cis & trans-bornanediol
Fold Induction of Tyrosinase Relative to Controls (0.5 mM (Table 19)): 9.9X | Fold Induction of Tyrosinase Relative to Controls (1 mM (Table 19)): 37.3X | Fold Induction of Tyrosinase Relative to Controls (2.5 mM (Table 19)): 99.7X | relative melanogenic potency in S91 cells (in words): approximately twice as much melanogenic activity as (1R, 2R, 3S, 5R)-(−)-pinanediol
